Reference: patent US20120108624A1, “TREATMENT OF DYSKINESIA RELATED DISORDERS” (priority 2009, published 2012)
Where a name gives a salt, the structure may show the parent alone.

Key:
[1] = tested on: mouse model of severe dopamine depletion; assay: Superiority model (MPTP mice treated with AMPT, motility); type: in vivo; settings: AMPT 250 mg/kg s.c., last 1 hour of recorded data
Description: On the day of the experiment, mice were treated with AMPT (250 mg/kg subcutaneously) and then returned to their home cages for 1.5 hours after which they were placed in individual cages in the motility unit. AMPT (alpha-methyl-p-tyrosine) is a drug that temporarily reduces brain catecholamine activity (in this case especially dopamine levels). […] Various dopaminergic compounds were tested for their ability to reverse the motility deficits produced in this model. […] Benserazide is a DOPA decarboxylase inhibitor which is unable to cross the blood-brain barrier; it is used to prevent metabolism of L-DOPA to dopamine outside the brain.
On the day of the experiment, mice were treated with AMPT (250 mg/kg subcutaneously) and then returned to their home cages for 1.5 hours after which they are placed in individual cages in the motility unit. AMPT (alpha-methyl-p-tyrosine) is a drug that temporarily reduces brain catecholamine activity (in this case especially dopamine levels). […] Various dopaminergic compounds are tested for their ability to reverse the motility deficits produced in this model. […] Benserazide is a DOPA decarboxylase inhibitor which is unable to cross the blood-brain barrier; it is used to prevent metabolism of L-DOPA to dopamine outside the brain.
On the day of the experiment, mice were treated with AMPT (250 mg/kg subcutaneously) and then returned to their home cages for 1.5 hours after which they were placed in individual cages in the motility unit. AMPT (alpha-methyl-p-tyrosine) is a drug that temporarily reduces brain catecholamine activity (in this case especially dopamine levels). […] Various dopaminergic compounds were tested for their ability to reverse the motility deficits produced in this model. […] Benserazide is a DOPA decarboxylase inhibitor which is unable to cross the blood-brain barrier; it was used to prevent metabolism of L-DOPA to dopamine outside the brain.

[2] = tested on: Sprague Dawley rats with unilateral 6-OHDA lesions; assay: Induction of dyskinesia model with naive 6-OHDA rats (AIMS); type: in vivo, rat; settings: once daily s.c. for 14 days, scored up to day 12
Description: Twenty male Sprague Dawley rats with unilateral 6-OHDA lesions were used to test induction of dyskinesia by compound 10 (administered subcutaneously; n=7; group 1) compared to L-DOPA/benserazide (6 mg/kg / 15 mg/kg subcutaneously; n=7; group 2) and apomorphine (1 mg/kg subcutaneously; n=6; group 3). Benserazide is a DOPA decarboxylase inhibitor which is unable to cross the blood-brain barrier; it is used to prevent metabolism of L-DOPA to dopamine outside the brain. Three weeks after 6-OHDA surgery, the animals were tested for their rotation response induced by 2.5 mg/kg amphetamine, which induces ipsilateral circling (amphetamine increases the level dopamine in the brain via the intact neurons on the unlesioned side causing the animals to rotate in the opposite direction as compared to their response to direct agonists such as L-DOPA and apomorphine that act predominantly on the lesioned side of the brain). […] Rats where then randomly allocated to the three treatment groups balancing the groups for the animals' rotation response on amphetamine.
Rats received drug for 14 consecutive days and were scored on days 1, 2, 3, 4, 5, 8, 10 and 12. […] Following this experiment all rats were given subcutaneous injections of compound 10 from day 15-19 in order to determine how Example I influenced the severity of dyskinesia seen in the apomorphine and L-DOPA groups. Dykinesia scoring was performed on day 19 of the experiment (corresponding to 5 days on compound 10).

MPTP treated marmosets = assay: Anti-Parkinsonian effects in MPTP-treated common marmosets; type: in vivo, common marmoset; settings: dosed p.o.
Description: (§1) The experiments were conducted using 6 MPTP treated marmosets (2.0 mg/kg daily for up to 5 consecutive days dissolved in sterile 0.9% saline solution). All the animals had previously been treated with L-DOPA (12.5 mg/kg p.o., plus carbidopa 12.5 mg/kg p.o.) administered daily for up to 30 days in order to induce dyskinesia. […] Domperidone was administered 60 min before any of the test compounds. Domperidone is an anti-dopaminergic drug that suppresses nausea and vomiting. Locomotor Activity was assessed using test cages that are comprised of 8 photo-electric switches comprised of 8 infra-red beams which are strategically placed in the cage and interruption of a beam is recorded as one count. […] The assessment of motor disability was performed by a trained observer blinded to the treatment.
as §1, with “antidopaminergic” for “anti-dopaminergic”
as §1, with “compounds.” for “compounds. Domperidone is an anti-dopaminergic drug that suppresses nausea and vomiting.”

[3] = tested on: rats with unilateral 6-OHDA lesions; assay: 6-OHDA rat model (rotation response); type: in vivo; settings: rotation in unilateral 6-OHDA rats; for D1/D2 ratio: MED and MED to overcome Nemonapride block
Source text: Dopamine agonists can have activity at either the D1 receptors, the D2 receptors, or both. The rotation response in rats with unilateral 6-OHDA lesions can be used to assess compounds for their ability to stimulate both receptor types and induce rotation (Ungerstedt and Arbuthnott, Brain Res., 1970, 24, 485; Setler, et al. Eur. J. Pharmacol., 1978, 50(4), 419; and Ungerstedt, et al. “Advances in Dopamine Research” (Kohsaka, Ed.), Pergamon Press, 1982, Oxford, p. 219). 6-OHDA (6-hydroxydopamine) is a neurotoxin used by neurobiologists to selectively kill dopaminergic neurons at the site of injection in the brain in experimental animals. In the 6-OHDA model, the nigrostraital dopamine cells are destroyed on one side of the brain (unilateral) by injecting 6-OHDA into the median forebrain bundle, located in front of the substantia nigra. This unilateral injection combined with stimulation by dopamine agonists such as apomorphine will induce rotation behaviour as only one side of the brain is stimulated. Experiments consist of determining a minimum effective dose (MED) to induce rotation for the compound in question. Once a MED has been determined, a second experiment is performed to determine the MED of the compound to overcome Nemonapride block (MEDNemonapride). Nemonapride is a D2 antagonist that blocks the D2 receptor, therefore any observed rotations would be dependent upon activity at the D1 receptor. Finally, once the MEDNemonapride is known a third experiment is run using the MEDNemonapride dose and observing the effect of the D1 antagonist, SCH 23390 alone, the D2 antagonist, Nemonapride alone and finally, the effect of combined treatment with SCH 23390 and Nemonapride. […] This model was validated using apomorphine as the proof-of-principle compound for mixed D1/D2 agonists.
Dopamine agonists can have activity at either the D1 receptors, the D2 receptors, or both. The rotation response in rats with unilateral 6-OHDA lesions can be used to assess compounds for their ability to stimulate both receptor types and induce rotation (Ungerstedt and Arbuthnott, Brain Res. 24, 485 (1970); Setler, et al., Eur. J. Pharmacol., 50(4), 419 (1978); and Ungerstedt, et al., “Advances in Dopamine Research” (Kohsaka, Ed.), Pergamon Press, 1982, Oxford, p. 219). 6-OHDA (6-hydroxydopamine) is a neurotoxin used by neurobiologists to selectively kill dopaminergic neurons at the site of injection in the brain in experimental animals. In the 6-OHDA model the nigrostraital dopamine cells are destroyed on one side of the brain (unilateral) by injecting 6-OHDA into the median forebrain bundle, located in front of the substantia nigra. […] Once a MED has been determined, a second experiment is performed to determine the MED of the compound to overcome Nemonapride block (MEDNemonapride). […]

'parkinsonian' rats = assay: Dyskinesia rat model, Example 4 (AIMs, Compound 12 vs. L-DOPA/Benserazide); type: in vivo
Description: A rat dyskinesia model reported in the literature (Lundblad, et al., Eur. J Neurosci., 2002, 15, 120) was used to examine the effects of Compound 12 vs. L-DOPA/Benserazide with respect to dyskinesias that were assessed as abnormal involuntary movements (AIMs) in ‘parkinsonian’ rats.
Throughout the study animals received L-DOPA/Benserazide (6 mg/kg and 15 mg/kg subcutaneous) or Compound 12 (group B) once daily at t=−20 min. 0-180 min. Animals were scored for dyskinesias. Days 1-14: All animals were dosed with L-DOPA/Benserazide (group A) or Compound 12 (group B).
(§2) At days 1, 3, 5, 8 and 12, animals were scored according to AIM-scoring by recording dyskinesias using the Abnormal Involuntary Movement Scale (AIMS) as described previously. Days 15-26: Group A animals were treated with Compound 12 (as group B) instead of L-DOPA/Benserazide. Day 15, 16, 17, 19, 22, 24 and 26: Animals scored according AIM-scoring.

[4] = tested on: rats with unilateral 6-OHDA lesions; assay: Dyskinesia profile in rats with unilateral 6-OHDA lesions (summary statements); type: in vivo, rat; settings: for induction of dyskinesias compared with L-DOPA and apomorphine / reduction of L-DOPA induced dyskinesias compared with D2 agonists (pramipexole): rats with unilateral 6-OHDA lesions
[5] = Conversion into the active metabolite upon in-vivo administration
[6] = tested on: 'parkinsonian' rats (6-OHDA rats); assay: Dyskinesia rat model, Example 3 (AIMs, test drug vs. L-DOPA/benserazide); type: in vivo
Description: A rat dyskinesia model reported in the literature (Lundblad, et al., Eur. J Neurosci., 2002, 15, 120) was used to examine the effects of the active metabolite vs. L-DOPA/benserazide with respect to dyskinesias that were assessed as abnormal involuntary movements (AIMs) in ‘parkinsonian’ rats.
0-180 min. Animals were scored for dyskinesias.
as §2, with “previously (Lundblad, et al., Eur. J Neurosci., 2002, 15, 120).” for “previously.”, “the test drug” for “Compound 12”, “L-DOPA/benserazide.” for “L-DOPA/Benserazide.”

Compound | reversal of motility deficits / restoration of locomotion [1] | dyskinesia scores (AIMS) [2] | locomotor activity and motor disability (MPTP treated marmosets) | duration of reversal of motor disability compared to L-DOPA (MPTP treated marmosets) | efficacy compared to L-DOPA (MPTP treated marmosets) | induction of dyskinesias compared with L-DOPA and apomorphine [4] | reduction of L-DOPA induced dyskinesias compared with D2 agonists (pramipexole) [4] | conversion into active metabolite (Compound 10) [5] | D1/D2 ratio [3] | also measured
N[C@@H](Cc1ccc(O)c(O)c1)C(=O)O [L-DOPA] | able to reverse motility deficits | about 70 | increased locomotor activity and reversed motor disability |  |  |  |  |  |  | 
CCCN1CCC[C@@H]2Cc3c(ccc(O)c3O)C[C@H]21 [Compound 10, (4aR,10aR)-1-Propyl-1,2,3,4,4a,5,10,10a-octahydro-benzo[g]quinoline-6,7-diol hydrobromide] |  | about 30 |  |  |  |  |  |  |  | duration of action [3]: ca. 18 h
CCCN(CCc1cccs1)[C@H]1CCc2c(O)cccc2C1 [rotigotine, reference compound] |  |  |  |  |  |  |  |  |  | D1 component [3]: could not be observed
CCCN1CCC[C@@H]2CC3=C(CCCC3=O)C[C@H]21 [Compound 12, (4aR,10aR)-1-n-propyl-2,3,4,4a,5,7,8,9,10,10a-decahydro-1H-benzo[g]quinolin-6-one] |  |  | dose-related increases in locomotor activity and reversal of motor disability | prolonged reversal of motor disability | as efficacious as L-DOPA | induces less dyskinesias than L-DOPA and apomorphine | reduces L-DOPA induced dyskinesias more effectively than D2 agonists | Convert into the Catechol-Containing Active Metabolite |  | dyskinesia scores (AIMS) ('parkinsonian' rats; after eight days of once daily treatment): 10-25; dyskinesia scores (AIMS) after shifting group A from L-DOPA/benserazide ('parkinsonian' rats; compound 12 for 10 days after L-DOPA/benserazide): 30-35; induction of dyskinesia compared with L-DOPA ('parkinsonian' rats; days 1-14): significantly less dyskinesia than L-DOPA; reduction of the dyskinesias induced by L-DOPA ('parkinsonian' rats; group A shifted to compound 12, days 15-26): able to reduce the dyskinesias induced by L-DOPA
CCCN1CCC[C@@H]2Cc3c(ccc4c3OCO4)C[C@H]21 [Compound 11, (6aR,10aR)-7-n-Propyl-6,6a,7,8,9,10,10a,11-octahydro-1,3-dioxa-7-aza-cyclopenta[a]anthracene hydrochloride] |  |  | dose-related increases in locomotor activity and reversal of motor disability | prolonged reversal of motor disability | as efficacious as L-DOPA | induce less dyskinesias than L-DOPA and apomorphine | reduce L-DOPA induced dyskinesias more effectively than D2 agonists | Convert into the Catechol-Containing Active Metabolite | about 2 | dyskinesia scores (AIMS) ([6]; after eight days of once daily treatment, constant until day 12): 2-4; induction of dyskinesia compared with L-DOPA ([6]; days 1-14): significantly less dyskinesia than L-DOPA; reduction of the dyskinesias induced by L-DOPA ([6]; group A shifted from L-dopa/benserazide to the test drug, days 15-26): able to reduce the dyskinesias induced by L-DOPA; reversal of dyskinesias induced by L-DOPA/benserazide and apomorphine ([4]; rats lesioned with 6-OHDA): reversed dyskinesias
CN1CCc2cccc3c2[C@H]1Cc1ccc(O)c(O)c1-3 [apomorphine] | restored locomotion | about 70 |  |  |  |  |  |  | about 3 | reversal of motility deficits / restoration of locomotion ([1]; listed as Apomorphine): able to reverse motility deficits
